One experiment deals with AtMPK3 and AtMPK6. The experiment in a line: Immunoblot analysis of MAPK activation. The note with it: 5 μM, seedlings, FIG. 1H. In kind it is cell-based, Arabidopsis thaliana. The protocol: MAPK activation was elicited in 14-days-old liquid-grown seedlings as described (Ranf et al., 2015) by adding MAMPs to the final concentrations indicated. […] Proteins were extracted in kinase extraction buffer containing 50 mM Tris/HCl pH 7.5, 100 mM NaCl, 20 mM EGTA, 30 mM beta-glycerophosphate, 30 mM 4-p-Nitrophenylphosphate, 4 mM NaF, 4 mM Na3VO4, 4 mM Na2MoO4, 10 mM DTT, 0.2% Tween 20, and 1× plant protease inhibitor cocktail P9599 (Sigma-Aldrich). […] total protein (according to Bradford Protein Assay, Bio-Rad) was separated by standard SDS polyacrylamide gel-electrophoresis (Mini-PROTEAN Tetra Cell, Bio-Rad) and blotted onto nitrocellulose membrane (Amersham™ Protran™ 0.2 μm NC, GE Healthcare) using a Trans-Blot® SD Semi-Dry Transfer Cell (Bio-Rad). Membranes were blocked in Protein-Free TBS Blocking Buffer (Pierce™) and immunostained with anti-phospho-MPK antibody (anti-phospho-p44/42-ERK, 1:1000, Cell Signaling Technology #9101) and anti-rabbit-IgG-peroxidase conjugate (A9169, 1:50000, Sigma-Aldrich) using SuperSignal™ West Dura Extended Duration Substrate (Thermo Scientific). ECL chemiluminescence was detected using a Fusion SL camera (Vilber Lourmat). Membranes were stained with Amido black to assess equal protein loading.

The next experiment has as its system Pst DC3000. As to the kind of experiment: Induced resistance assay in Arabidopsis plants. To be noted: FIG. 1J. In kind it is in vivo, Pseudomonas syringae pv. tomato. Here is the method:
After two or three days Pst DC3000 was syringe infiltrated into leaves 4 and 5 of the pretreated plants at 1×10^5 CFU/ml. Bacterial growth in infected leaves was determined 4 days later as described (Vlot et al., 2008). Statistical analysis (one-way analysis of variance, ANOVA, with Tukey's multiple comparison post-test) was applied separately for wild type and mutant plants using GraphPad Prism 7.0.

Experiment [1] has as its target T1, LORE (Arabidopsis thaliana, UniProt O64782).
T1 construct: aequorin-expressing wild-type (Col-0^AEQ) or lore-1 mutant seedlings; endogenous in cells; host or cells: Arabidopsis thaliana Col-0 / Col-0^AEQ seedlings and leaf discs
T1 sequence (O64782 22-805): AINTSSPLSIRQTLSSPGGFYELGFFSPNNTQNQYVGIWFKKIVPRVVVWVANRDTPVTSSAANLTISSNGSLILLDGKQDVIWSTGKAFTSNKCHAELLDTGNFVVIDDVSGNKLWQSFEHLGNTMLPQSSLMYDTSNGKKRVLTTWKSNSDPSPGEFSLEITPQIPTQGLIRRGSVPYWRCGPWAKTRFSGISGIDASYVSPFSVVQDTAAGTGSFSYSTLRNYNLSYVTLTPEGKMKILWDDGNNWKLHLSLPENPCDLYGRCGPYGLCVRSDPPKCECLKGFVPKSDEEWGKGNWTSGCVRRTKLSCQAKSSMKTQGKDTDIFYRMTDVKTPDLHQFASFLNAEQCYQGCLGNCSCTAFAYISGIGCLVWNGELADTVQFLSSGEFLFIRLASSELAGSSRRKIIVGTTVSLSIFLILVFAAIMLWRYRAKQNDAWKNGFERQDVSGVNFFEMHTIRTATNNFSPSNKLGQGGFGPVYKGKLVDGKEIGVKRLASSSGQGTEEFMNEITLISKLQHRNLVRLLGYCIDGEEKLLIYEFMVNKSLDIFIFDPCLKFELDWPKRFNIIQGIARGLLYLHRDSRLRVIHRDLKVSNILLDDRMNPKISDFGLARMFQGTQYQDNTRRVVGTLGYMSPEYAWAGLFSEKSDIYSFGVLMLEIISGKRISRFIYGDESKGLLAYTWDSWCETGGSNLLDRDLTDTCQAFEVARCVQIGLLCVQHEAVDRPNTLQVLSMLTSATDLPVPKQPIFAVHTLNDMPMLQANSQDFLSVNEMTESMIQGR
The experiment in a line: Aequorin luminescence measurements of [Ca^2+]cyt elevations in Arabidopsis seedlings. Type of experiment: cell-based. The note with it: for elicitor activity ([Ca^2+]cyt response): 5 μM, Col-0^AEQ or lore-1 seedlings, FIG. 2H-J. Here is the method:
Aequorin luminescence measurements were performed essentially as described (Ranf et al., 2012). In short, 8- to 10-days-old liquid-grown apoaequorin-expressing seedlings were placed individually in 96-well plates in MP-dH2O containing 5-10 μM coelenterazine-h (p.j.k. GmbH) in the dark overnight. Luminescence was recorded by scanning 2 rows in 10 sec intervals using a Luminoskan Ascent 2.1 (Thermo Scientific). Remaining aequorin was discharged by addition of 150 μl 2 M CaCl2) with 20% EtOH per well. [Ca^2+]cyt concentrations were calculated as L/Lmax (luminescence counts per sec/total luminescence counts remaining).

Experiment [2] concerns the target T1, LORE. The experiment in a line: PTI in Arabidopsis (biological assays, LORE dependence). In kind it is cell-based. To be noted: for elicitor activity / PTI responses / early PTI signalling reactions: 5 μM, [Ca^2+]cyt and ROS; for elicitor activity: FIG. 3B-E, FIG. 6B; for PTI responses ([Ca^2+]cyt signalling, ROS production, defence gene induction, MAPK activation; ROS in LORE-GFP-expressing N. benthamiana): FAs 1-5 μM, compared to mc-3-OH-FAs, FIG. 2A-G; for PTI responses: FIG. 3A,B; for early PTI signalling reactions: short-term exposure, FIG. 4D-E.

For the next experiment, the system named is AtFRK1 and AtNHL10. The experiment in a line: Gene expression analysis (quantitative PCR of defence genes). The note with it: 1 μM, four hours after elicitation, seedlings, FIG. 1G.
Experiment [3] has as its target T1, LORE. The experiment in a line: ROS detection in Arabidopsis leaves (leaf discs). In kind it is cell-based. The note with it: 5 μM, leaf discs Col-0 or lore-5, FIG. 2D. The protocol:
ROS production was monitored as described (Ranf et al., 2015) in 3 mm leaf discs from 6-8 weeks-old soil-grown plants in 100 μl 5 μM L-012 (WAKO chemicals) and 2 μg/ml horseradish peroxidase (Type II, Roche) in MP-dH2O. For experiments including 4-OH-10:0 (19) and 5-OH-10:0 (20), 10 mM Tris pH 8 was added to the L-012/HRP mix. Luminescence was recorded as relative light units (RLU) in 1 min intervals using a Luminoskan Ascent 2.1 (Thermo Scientific) or a Tecan F200. After 10 min background reading, elicitors were added to the final concentrations indicated and luminescence readings continued over 45-60 min. Data are depicted after normalization to average ROS levels 5 min before elicitor application and subtraction of water or MeOH controls that were included for each genotype on the same plate.

[4] abbreviates: wild-type Arabidopsis plants pre-treated with 10 μM, titre at 4 dpi.
Setting [5] is: sample conc. used for biological assays 1 μM-5 μM (mostly).
The mark [6] stands for this setting: sample conc. used for biological assays 5 μM.

On to `CCCCCCCC(O)CC(=O)O` (racemic) [Compound 1, 3-hydroxydecanoic acid], for which the “phosphorylation of AtMPK3 and AtMPK6” value with AtMPK3 and AtMPK6 was “phosphorylation of mitogen-activated protein kinases (MAPK), AtMPK3 and AtMPK6”. Also, the entries for the “systemic resistance to infection with Pst DC3000” value in the experiment on Pst DC3000 (lore-1 mutant plants pre-treated with 10 μM) and with Pst DC3000 (setting [4]) were “systemic resistance was not activated” and “more resistant to subsequent infection with virulent Pst DC3000”, respectively. The “[Ca^2+]cyt elevations” value at LORE [1] (Col-0^AEQ seedlings, different concentrations (nanomolar to micromolar range), FIG. 1C) is “sufficient to elicit [Ca^2+]cyt elevations”. Moreover, the elicitor activity result on LORE [2] is on record as “strongest elicitor activity”. Also, the LORE-dependent result at LORE [2] (setting [5]) and on LORE [2] (setting [6]) was “Yes” each time. Also, the “PTI in Arabidopsis” value at LORE [2] (setting [5]) and on LORE [2] (setting [6]) was “Yes” throughout. The “[Ca^2+]cyt or ROS signals” value on LORE [2] (subsequent application after mc-3-OH-FA-depleted LPS, FIG. 4A-C, FIG. 5) was “typical [Ca^2+]cyt or ROS signals were induced”. In addition, in the experiment with AtFRK1 and AtNHL10, the “transcript accumulation of PTI response genes AtFRK1 and AtNHL10” value is “induced transcript accumulation”. Consider `CCCCCCCCCCCC(O)CC(=O)O` (racemic) [Compound 7, 3-hydroxytetradecanoic acid], for which the “systemic resistance to infection with Pst DC3000” value in the experiment with Pst DC3000 (setting [4]) is listed as “did not establish systemic resistance to bacterial infection”. On LORE [2] (FIG. 1D-H), the PTI signalling entry is on record as “did not induce PTI signalling”. On to `CCCCCCCCCC(=O)NC1CCOC1=O` (racemic) [Compound 43, N-Decanoyl-DL- homoserine lactone], for which the “PTI in Arabidopsis” value at LORE [2] (setting [6]) is “No”.

On to `CCCCCCC/C=C\C(=O)O` [Compound 17, (Z)-dec-2-enoic acid], for which the “PTI responses ([Ca^2+]cyt signalling, ROS production, defence gene induction, MAPK activation; ROS in LORE-GFP-expressing N. benthamiana)” value at LORE [2] was “weak and independent of LORE”. Turning to `CCCCCCC/C=C/C(=O)O` [Compound 18, (E)-dec-2-enoic acid], on LORE [2], the “PTI responses ([Ca^2+]cyt signalling, ROS production, defence gene induction, MAPK activation; ROS in LORE-GFP-expressing N. benthamiana)” value is “weak and independent of LORE”. For the compound `CCCCCCC(O)CCC(=O)O` (stereo not drawn) [Compound 19, 4-hydroxydecanoic acid], the “LORE-dependent ROS production” value at LORE [3] is recorded as “did not elicit LORE-dependent ROS production”. For the compound `CCCCCC(O)CCCC(=O)O` (stereo not drawn) [Compound 20, 5-hydroxydecanoic acid], the “LORE-dependent ROS production” value at LORE [3] was “did not elicit LORE-dependent ROS production”.

Consider `CCCCCCCC(Cl)CC(=O)OC` (stereo not drawn) [Compound 22, methyl 3-chlorodecanoate], for which, on LORE [1], the “elicitor activity ([Ca^2+]cyt response)” value is recorded as “abolished elicitor activity”. As to `CCCCCCCC(=O)CC(=O)O` [Compound 23, 3-oxodecanoic acid], the “elicitor activity ([Ca^2+]cyt response)” value on LORE [1] is “induced a moderate LORE-dependent [Ca^2+]cyt response”. Still for that read-out and setting: for `CCCCCCCC(CC(=O)O)OC` (stereo not drawn) [Compound 24, 3-methoxydecanoic acid] the value was “abolished elicitor activity”. Take `CCCCCCCC(CC(=O)O)OC(C)=O` (stereo not drawn) [Compound 25, 3-acetoxydecanoic acid]: the “elicitor activity ([Ca^2+]cyt response)” value at LORE [1] is “abolished elicitor activity”. Regarding `CCCCCCCC(O)CC` (stereo not drawn) [Compound 27, decan-3-ol], the PTI responses result at LORE [2] is “neither 3-decanol nor 1,3-decandiol elicited PTI responses”. Take `CCCCCCCC(O)CCO` (stereo not drawn) [Compound 28, decane-1,3-diol]: the PTI responses result on LORE [2] is reported as “neither 3-decanol nor 1,3-decandiol elicited PTI responses”. Consider `CCCCCCCC(O)CC(=O)OC(C)(C)C` (stereo not drawn) [Compound 30, tert-butyl-3-hydroxydecanoate], for which, on LORE [2], the elicitor activity entry is “inactive”. Take `CCCCCCCC(O)CC(=O)N[C@H]1CCOC1=O` (stereo partly drawn) [Compound 41, N-(3-Hydroxydecanoyl)-L-homoserine lactone]: the “early PTI signalling reactions” value on LORE [2] is reported as “did not elicit significant early PTI signalling reactions”. On LORE [2] (setting [6]), the “PTI in Arabidopsis” value is “No”. For `CCCCCCCC(=O)CC(=O)N[C@H]1CCOC1=O` [Compound 42, N-(3-Oxodecanoyl)-L-homoserine lactone], on LORE [2], the “early PTI signalling reactions” value is reported as “did not elicit significant early PTI signalling reactions”. At LORE [2] (setting [6]), the “PTI in Arabidopsis” value was “No”.

As to `CCCCCCC[C@@H](O)CC(=O)O` [Compound 44, (R)-3-hydroxydecanoic acid], at LORE [1] (different concentrations, Arabidopsis seedlings, FIG. 6A), the “immune signalling ([Ca^2+]cyt elevations)” value is “induced stronger immune signalling than (S)-3-OH—C10:0 (45)”.
